Data: PubChem BioAssay (NCI)
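Briefly, cells in 96-well plates were exposed to five compound concentrations for 48 h, and endpoints were estimated by linear interpolation. Definition used: TGI = concentration required for complete inhibition of growth.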

What was measured:
Assay in all cases: DTP human tumour cell line panel, 48 h
786-0 renal = tested on: 786-0 renal
A549 NSCLC = tested on: A549 NSCLC
ACHN renal = tested on: ACHN renal
CAKI-1 renal = tested on: CAKI-1 renal
CCRF-CEM leukemia = tested on: CCRF-CEM leukemia
COLO 205 colon = tested on: COLO 205 colon
DLD-1 colon = tested on: DLD-1 colon
DMS 114 small cell lung = tested on: DMS 114 small cell lung
DMS 273 small cell lung = tested on: DMS 273 small cell lung
EKVX NSCLC = tested on: EKVX NSCLC
HCC-2998 colon = tested on: HCC-2998 colon
HCT-116 colon = tested on: HCT-116 colon
HCT-15 colon = tested on: HCT-15 colon
HOP-62 NSCLC = tested on: HOP-62 NSCLC
HOP-92 NSCLC = tested on: HOP-92 NSCLC
HT29 colon = tested on: HT29 colon
IGROV1 ovarian = tested on: IGROV1 ovarian
K-562 leukemia = tested on: K-562 leukemia
KM12 colon = tested on: KM12 colon
KM20L2 colon = tested on: KM20L2 colon
LOX IMVI melanoma = tested on: LOX IMVI melanoma
LXFL 529 NSCLC = tested on: LXFL 529 NSCLC
M14 melanoma = tested on: M14 melanoma
M19-MEL melanoma = tested on: M19-MEL melanoma
MALME-3M melanoma = tested on: MALME-3M melanoma
MOLT-4 leukemia = tested on: MOLT-4 leukemia
NCI-H226 lung = tested on: NCI-H226 lung
NCI-H23 lung = tested on: NCI-H23 lung
NCI-H460 lung = tested on: NCI-H460 lung
NCI-H522 lung = tested on: NCI-H522 lung
OVCAR-3 ovarian = tested on: OVCAR-3 ovarian
OVCAR-4 ovarian = tested on: OVCAR-4 ovarian
OVCAR-5 ovarian = tested on: OVCAR-5 ovarian
OVCAR-8 ovarian = tested on: OVCAR-8 ovarian
RPMI-8226 leukemia = tested on: RPMI-8226 leukemia
RXF-631 renal = tested on: RXF-631 renal
SF-268 CNS = tested on: SF-268 CNS
SF-295 CNS = tested on: SF-295 CNS
SF-539 CNS = tested on: SF-539 CNS
SK-MEL-2 melanoma = tested on: SK-MEL-2 melanoma
SK-MEL-28 melanoma = tested on: SK-MEL-28 melanoma
SK-MEL-5 melanoma = tested on: SK-MEL-5 melanoma
SK-OV-3 ovarian = tested on: SK-OV-3 ovarian
SN12C renal = tested on: SN12C renal
SNB-19 CNS = tested on: SNB-19 CNS
SNB-75 CNS = tested on: SNB-75 CNS
SNB-78 CNS = tested on: SNB-78 CNS
SW-620 colon = tested on: SW-620 colon
TK-10 renal = tested on: TK-10 renal
U251 CNS = tested on: U251 CNS
UACC-62 melanoma = tested on: UACC-62 melanoma
UO-31 renal = tested on: UO-31 renal
XF 498 CNS = tested on: XF 498 CNS
A498 renal = tested on: A498 renal
HL-60(TB) leukemia = tested on: HL-60(TB) leukemia
RXF 393 renal = tested on: RXF 393 renal
SR leukemia = tested on: SR leukemia
UACC-257 melanoma = tested on: UACC-257 melanoma
HOP-18 NSCLC = tested on: HOP-18 NSCLC

C=C1C(=O)O[C@@H]2C[C@]3(C)[C@@H](C[C@H]12)[C@](C)(O)CC[C@@H]3O showed a TGI (786-0 renal) greater than 100 µM, a TGI (A549 NSCLC) greater than 100 µM and a TGI (ACHN renal) greater than 100 µM. The TGI (CAKI-1 renal) was greater than 100 µM, the TGI (CCRF-CEM leukemia) was greater than 100 µM and the TGI (COLO 205 colon) was greater than 100 µM. The TGI (DLD-1 colon) was greater than 100 µM, the TGI (DMS 114 small cell lung) was greater than 100 µM and the TGI (DMS 273 small cell lung) was greater than 100 µM. The TGI (EKVX NSCLC) was greater than 100 µM, the TGI (HCC-2998 colon) was greater than 100 µM and the TGI (HCT-116 colon) was greater than 100 µM. It also gave a TGI (HCT-15 colon) greater than 100 µM, a TGI (HOP-62 NSCLC) greater than 100 µM and a TGI (HOP-92 NSCLC) greater than 100 µM. For the same compound, the TGI (HT29 colon) was greater than 100 µM, the TGI (IGROV1 ovarian) was greater than 100 µM and the TGI (K-562 leukemia) was greater than 100 µM. The TGI (KM12 colon) was greater than 100 µM, the TGI (KM20L2 colon) was greater than 100 µM and the TGI (LOX IMVI melanoma) was greater than 100 µM. It also gave a TGI (LXFL 529 NSCLC) greater than 100 µM, a TGI (M14 melanoma) greater than 100 µM and a TGI (M19-MEL melanoma) greater than 100 µM. It also gave a TGI (MALME-3M melanoma) greater than 100 µM, a TGI (MOLT-4 leukemia) greater than 100 µM and a TGI (NCI-H226 lung) greater than 100 µM. It also gave a TGI (NCI-H23 lung) greater than 100 µM, a TGI (NCI-H460 lung) of 68.9 µM and a TGI (NCI-H522 lung) greater than 100 µM. It also gave a TGI (OVCAR-3 ovarian) greater than 100 µM, a TGI (OVCAR-4 ovarian) greater than 100 µM and a TGI (OVCAR-5 ovarian) greater than 100 µM. It also gave a TGI (OVCAR-8 ovarian) greater than 100 µM, a TGI (RPMI-8226 leukemia) greater than 100 µM and a TGI (RXF-631 renal) greater than 100 µM. The TGI (SF-268 CNS) was greater than 100 µM, the TGI (SF-295 CNS) was greater than 100 µM and the TGI (SF-539 CNS) was greater than 100 µM. It also gave a TGI (SK-MEL-2 melanoma) greater than 100 µM, a TGI (SK-MEL-28 melanoma) greater than 100 µM and a TGI (SK-MEL-5 melanoma) greater than 100 µM. For the same compound, the TGI (SK-OV-3 ovarian) was greater than 100 µM, the TGI (SN12C renal) was greater than 100 µM and the TGI (SNB-19 CNS) was greater than 100 µM. For the same compound, the TGI (SNB-75 CNS) was greater than 100 µM, the TGI (SNB-78 CNS) was greater than 100 µM and the TGI (SW-620 colon) was greater than 100 µM. For the same compound, the TGI (TK-10 renal) was 76.6 µM, the TGI (U251 CNS) was greater than 100 µM and the TGI (UACC-62 melanoma) was greater than 100 µM. For the same compound, the TGI (UO-31 renal) was greater than 100 µM and the TGI (XF 498 CNS) was greater than 100 µM.

In the case of CC1=C/C(=C(\c2ccc(N(C)C)cc2)c2ccc([N+](C)(C)C)cc2)C=CC1=[N+](C)C, the TGI (786-0 renal) was 58.2 µM, the TGI (A498 renal) was 36.7 µM and the TGI (A549 NSCLC) was 28.9 µM. It also gave a TGI (ACHN renal) of 43.8 µM, a TGI (CAKI-1 renal) of 41.1 µM and a TGI (COLO 205 colon) of 85.4 µM. It also gave a TGI (DLD-1 colon) of 45.3 µM, a TGI (DMS 114 small cell lung) of 16.1 µM and a TGI (DMS 273 small cell lung) of 18.2 µM. It also gave a TGI (EKVX NSCLC) of 15.8 µM, a TGI (HCC-2998 colon) of 48.7 µM and a TGI (HCT-116 colon) of 14.3 µM. It also gave a TGI (HCT-15 colon) greater than 100 µM, a TGI (HL-60(TB) leukemia) of 5.93 µM and a TGI (HOP-62 NSCLC) of 71.5 µM. For the same compound, the TGI (HOP-92 NSCLC) was 30.6 µM, the TGI (HT29 colon) was 77.9 µM and the TGI (IGROV1 ovarian) was 26.6 µM. For the same compound, the TGI (K-562 leukemia) was greater than 100 µM, the TGI (KM12 colon) was 16.1 µM and the TGI (KM20L2 colon) was 32.8 µM. It also gave a TGI (LOX IMVI melanoma) of 17.7 µM, a TGI (LXFL 529 NSCLC) of 22.1 µM and a TGI (M14 melanoma) of 43 µM. It also gave a TGI (M19-MEL melanoma) of 20.3 µM, a TGI (MALME-3M melanoma) of 32.3 µM and a TGI (MOLT-4 leukemia) of 28.2 µM. The TGI (NCI-H226 lung) was 33.8 µM, the TGI (NCI-H23 lung) was 26.6 µM and the TGI (NCI-H460 lung) was 22.4 µM. The TGI (NCI-H522 lung) was 31.2 µM, the TGI (OVCAR-3 ovarian) was 24.4 µM and the TGI (OVCAR-4 ovarian) was 32.9 µM. It also gave a TGI (OVCAR-5 ovarian) of 69 µM, a TGI (OVCAR-8 ovarian) of 69.8 µM and a TGI (RPMI-8226 leukemia) of 5.44 µM. The TGI (RXF 393 renal) was 25.4 µM, the TGI (RXF-631 renal) was 21.4 µM and the TGI (SF-268 CNS) was 26.3 µM. It also gave a TGI (SF-295 CNS) of 19.3 µM, a TGI (SF-539 CNS) of 34.6 µM and a TGI (SK-MEL-2 melanoma) of 35 µM. For the same compound, the TGI (SK-MEL-28 melanoma) was 31.4 µM, the TGI (SK-MEL-5 melanoma) was 24.5 µM and the TGI (SK-OV-3 ovarian) was 31.6 µM. The TGI (SN12C renal) was 22.4 µM, the TGI (SNB-19 CNS) was 89.4 µM and the TGI (SNB-75 CNS) was 10.6 µM. For the same compound, the TGI (SNB-78 CNS) was 53.5 µM, the TGI (SR leukemia) was 4.75 µM and the TGI (SW-620 colon) was 46.3 µM. It also gave a TGI (TK-10 renal) of 14.9 µM, a TGI (U251 CNS) of 17.6 µM and a TGI (UACC-257 melanoma) of 27.9 µM. For the same compound, the TGI (UACC-62 melanoma) was 19.3 µM, the TGI (UO-31 renal) was 78.1 µM and the TGI (XF 498 CNS) was 10.1 µM.

With OCC(O)COc1ccc(Br)cc1 (centres undefined) the TGI (A498 renal) was greater than 100 µM, the TGI (A549 NSCLC) was greater than 100 µM and the TGI (ACHN renal) was greater than 100 µM. The TGI (CAKI-1 renal) was greater than 100 µM, the TGI (CCRF-CEM leukemia) was greater than 100 µM and the TGI (COLO 205 colon) was greater than 100 µM. The TGI (DLD-1 colon) was greater than 100 µM, the TGI (DMS 114 small cell lung) was greater than 100 µM and the TGI (DMS 273 small cell lung) was greater than 100 µM. For the same compound, the TGI (EKVX NSCLC) was greater than 100 µM, the TGI (HCC-2998 colon) was greater than 100 µM and the TGI (HCT-116 colon) was greater than 100 µM. For the same compound, the TGI (HCT-15 colon) was greater than 100 µM, the TGI (HL-60(TB) leukemia) was greater than 100 µM and the TGI (HOP-18 NSCLC) was greater than 100 µM. The TGI (HOP-62 NSCLC) was greater than 100 µM, the TGI (HOP-92 NSCLC) was greater than 100 µM and the TGI (HT29 colon) was greater than 100 µM. For the same compound, the TGI (IGROV1 ovarian) was greater than 100 µM, the TGI (K-562 leukemia) was greater than 100 µM and the TGI (KM12 colon) was greater than 100 µM. The TGI (KM20L2 colon) was greater than 100 µM, the TGI (LOX IMVI melanoma) was greater than 100 µM and the TGI (LXFL 529 NSCLC) was greater than 100 µM. It also gave a TGI (M14 melanoma) greater than 100 µM, a TGI (MALME-3M melanoma) greater than 100 µM and a TGI (NCI-H226 lung) greater than 100 µM. The TGI (NCI-H23 lung) was greater than 100 µM, the TGI (NCI-H522 lung) was greater than 100 µM and the TGI (OVCAR-3 ovarian) was greater than 100 µM. The TGI (OVCAR-4 ovarian) was greater than 100 µM, the TGI (OVCAR-5 ovarian) was greater than 100 µM and the TGI (OVCAR-8 ovarian) was greater than 100 µM. It also gave a TGI (RPMI-8226 leukemia) greater than 100 µM, a TGI (RXF 393 renal) greater than 100 µM and a TGI (RXF-631 renal) greater than 100 µM. It also gave a TGI (SF-268 CNS) greater than 100 µM, a TGI (SF-295 CNS) greater than 100 µM and a TGI (SF-539 CNS) greater than 100 µM. It also gave a TGI (SK-MEL-2 melanoma) greater than 100 µM, a TGI (SK-MEL-28 melanoma) greater than 100 µM and a TGI (SK-MEL-5 melanoma) greater than 100 µM. For the same compound, the TGI (SK-OV-3 ovarian) was greater than 100 µM, the TGI (SN12C renal) was greater than 100 µM and the TGI (SNB-19 CNS) was greater than 100 µM. It also gave a TGI (SNB-75 CNS) greater than 100 µM, a TGI (SR leukemia) greater than 100 µM and a TGI (SW-620 colon) greater than 100 µM. It also gave a TGI (TK-10 renal) greater than 100 µM, a TGI (U251 CNS) greater than 100 µM and a TGI (UACC-257 melanoma) greater than 100 µM. For the same compound, the TGI (UACC-62 melanoma) was greater than 100 µM, the TGI (UO-31 renal) was greater than 100 µM and the TGI (XF 498 CNS) was greater than 100 µM.
